Measurements from US5173493A, “Pyridoindole derivatives and processes for preparation thereof” (Fujisawa Pharmaceutical Company, Ltd., priority 1988, dated 1992).
Like-named read-outs stand apart in the source and are kept apart here.

How the values were obtained:
Benzold-Jarisch reflex = experiment: Inhibition of Benzold-Jarisch reflex; type: in vivo, Male Sprague-Dawley rats; conditions: Rattus norvegicus, 5 min, iv
Protocol: (A) Inhibition of Benzold-Jarisch reflex
Male Sprague-Dawley rats weighing 260-350 g were anesthetized intraperitoneally with 1.25 g/kg urethane.
Blood pressure and heart rate were monitored continuously from the left common carotid artery with a pressure transducer. A right femoral vein was connulated for the intravenous injection (iv) of drugs. The trachea was also connulated to ease the respiration.
Rats were given a rapid bolus injection of 2-methyl-5-hydroxytryptamine (32 μg/kg, iv) to establish the control bradycardic response. Once the heart rate returned to base line, the rats were given the test compound (iv), followed by 5-minutes interval and another bolus injection of 2-methyl-5-hydroxytryptamine (32 μg/kg, iv).

[1] = test system: Cisplatin-induced vomiting; experiment: Inhibition of Cisplatin-induced vomiting; type: in vivo, female beagles; conditions: Canis lupus familiaris; intravenously twice, 10 minutes prior to and 90 minutes after Cisplatin (3.2 mg/kg, iv); observed up to 5 hours
Protocol: (B) Inhibition of Cisplatin-induced vomiting
Nonfasted female beagles weighing about 10 kg were administered test compound or saline intravenously twice 10 minutes prior to and 90 minutes after Cisplatin dosing (3.2 mg/kg, iv).
Cisplatin was dissolved in 0.9% warm saline with a final concentration of 3 mg/ml and used immediately.

[2] = inhibition of bradycardic response to 2-methyl-5-hydroxytryptamine (32 μg/kg, iv), anesthetized rats, read-out: ED50

For Cc1[nH]cnc1CC1CCc2c(C)c3ccccc3n2C1=O.Cl (single isomer, unassigned; (+)) [Compound 3, (+)-8,9-Dihydro-10-methyl-7-[(5-methyl-1H-imidazol-4-yl)methyl]pyrido[1,2-a]indol-6(7H)-one hydrochloride], the ED50 (Benzold-Jarisch reflex; [2]) was 0.9 µg/kg and the ED50 [1] was 1.1 µg/kg.

Compound Cc1[nH]cnc1C(O)C1CCc2c(C)c3ccccc3n2C1=O.O=C(O)/C=C\C(=O)O (single isomer, unassigned; isomer b) [Compound 1, 8,9-Dihydro-7-[(hydroxy)(5-methyl-1H-imidazol-4-yl)methyl]-10-methylpyrido[1,2-a]indol-6(7H)-one maleate (isomer B)] has an ED50 (Benzold-Jarisch reflex; [2]) of 5.9 µg/kg.

With Cc1c2n(c3ccccc13)C(=O)C(Cc1c[nH]cn1)CC2 (centres unmarked) [Compound 2, 8,9-Dihydro-7-[(1H-imidazol-4-yl)methyl]-10-methylpyrido[1,2-a]indol-6(7H)-one] the ED50 (Benzold-Jarisch reflex) was 1.8 µg/kg.

For Cc1[nH]cnc1CC1(C)CCc2c(C)c3ccccc3n2C1=O (centres unmarked) [Compound 4, 8,9-Dihydro-7,10-dimethyl-7-[(5-methyl-1H-imidazol-4-yl)methyl]pyrido[1,2-a]indol-6(7H)-one], the ED50 (Benzold-Jarisch reflex; [2]) was 1.1 µg/kg.
